According to US11058700B2, “Macrocyclic lactones and uses thereof as modulators of purinergic receptors” (City of Hope, priority 2015, dated 2021):

Key:
4T1.2 cells = assay: Cell viability (acid phosphatase assay) of cancer cells treated with Ivermectin; assay type: cell-based, mouse; conditions: for effect on Ivermectin-induced cell death: cells treated with Ivermectin (32 μM, 4 h in figure legends) in the presence of the agent
Method: Cell viability. Cancer cells were plated on 96 well flat-bottom plates and allowed to attach overnight. Cells were then pre-incubated with drugs for 1 h and treated with Ivermectin for 4 h. In the case of 24 h and 48 h incubations the cells, Ivermectin and drugs were plated together. All treatments and controls were done in triplicate wells and results were validated in at least two independent experiments. Following treatment the plates were washed once with PBS and cell viability was measured using the acid phosphatase assay. Briefly, cells were incubated for 1h at 37° C. in 100 μL assay buffer (0.16 M sodium acetate, 0.1% Triton-X-100, supplemented with 4-Nitrophenyl phosphate disodium salt hexahydrate, Sigma Aldrich, at 0.00263 g/ml). Reaction was stopped using 10 μL of 1N sodium hydroxide. Absorption at 405 nm was measured within 10 min using a multi-well plate reader. Mode of cell death and viability of cells in suspension was evaluated using flow cytometry. Briefly, cancer cells were pre-incubated with drugs for 30 min to 1 h, as indicated, treated with Ivermectin for 4 h in 5 ml FACS tubes , washed twice in PBS and stained with PE-conjugated Annexin V and 7AAD (1 μl per 100 μl/200,000 cancer cells) for 15 min.

[1] = test system: P2X4/P2X7/Pannexin-1 channels; assay: Membrane permeabilization to YOPRO-1; assay type: cell-based, mouse; conditions: 4T1.2 cells, 3 mM ATP and 32 μM Ivermectin
Method: FIGS. 3A-3G. Dual roles of ATP and purinergic signaling in Ivermectin's killing. FIG. 3A: Depletion of extracellular ATP with Apyrase (2500 μunits/ml) exacerbates killing of 4T1.2 cell by Ivermectin. FIG. 3B: Extracellular Ca^2− and ATP contain Ivermectin-induced cell swelling. 4T1.2 cells were treated with 32 μM Ivermectin for 4 h in the presence of 1 mM EDTA or 2500 μunits/ml Apyrase. FIG. 3C: Ivermectin (0.5-32 μM) and high concentrations of extracellular ATP (0.3-3 mM) synergistically open pannexin-1 channels and permeabilize the membrane on live cells (7AAD-positive dead cells were gated out). 4T1.2 cells were treated for 30 min as indicated in the presence of 7 AAD and 5 μM YOPRO-1. FIG. 3D: Analysis of supernatants from Ivermectin-treated murine and human TNBC cells showing rapid release of ATP followed by its transient depletion. Depletion of extracellular ATP with Apyrase (2500 μunits/ml) was used as a positive control. FIG. 3E: Analysis of membrane-proximal ATP levels using cancer cells engineered to express a membrane-bound Luciferase. […] FIG. 3G: The P2X7-specific inhibitor KN-62 (1-10 μM) blocks Ivermectin cytotoxicity (IVM 8-32 μM, 4-48 h treatments). Asterisk (*) indicates p<0.05 relative to untreated or Ivermectin alone controls, respectively.
FIGS. 10A-10L. Extracellular Dual roles of ATP and purinergic signaling in Ivermectin's killing. 4T1.2 cells were treated with Ivermectin for 4 h in the presence of different inhibitors at μM concentrations as indicated. FIG. 10A: The non-specific P2 purinergic receptor inhibitor Suramin (4-400 μM) exacerbates Ivermectin-induced cell death. FIG. 10B: Inhibition of extracellular ATPases with PSB 069 protects against Ivermectin cytotoxicity. FIG. 10C: Blockade of pannexin-1 channels with Panx-1 mimetic blocking peptide (Anaspec) and Probenecid at μM concentrations as indicated exacerbates killing. […] FIG. 10E: ATP plays a transiently protective role only in the mouse but not human breast cancer cells. 4T1.2 and MDA-MB-231 cells were treated with 32 μM Ivermectin for 4 h in the presence of ATP at mM concentrations as indicated. FIG. 10F: qPCR showing up-regulation of P2X4 and P2X7 receptors on several murine cancer cell lines, including 4T1.2 and DD-Her2/neu (breast), and B16 (melanoma). […] Expression of P2X and P2Y purinergic receptors, NOX family members, GABA, and Glycine receptors was analyzed using publicly available breast cancer cell lines datasets. Statistically significant (p<0.05) up-regulation and down-regulation in breast cancer versus normal cells is shown in red and blue, respectively. FIG. 10H: Correlation between sensitivity to Ivermectin and ATP across various human cancer cell lines. Cancer cells were treated for 24 h with 3 mM ATP or Ivermectin at 16 and 32 μM doses as indicated. […]

Row | Structure (SMILES) | effect on Ivermectin-induced cell death (4T1.2 cells) | block of ATP+Ivermectin-induced membrane permeabilization to YOPRO-1 [1] | KN-62 needed to protect against Ivermectin-induced cell death (4T1.2 cells) | long-term protection against Ivermectin (4T1.2 cells; 24 h, 12 μM IVM)
1 | Clc1cccc(-c2nnnn2Cc2cccnc2)c1Cl [A438079] | did not observe any protection | suppressed permeabilization to YOPRO-1 in a dose-dependent fashion |  | 
2 | CN([C@@H](Cc1ccc(OS(=O)(=O)c2cccc3cnccc23)cc1)C(=O)N1CCN(c2ccccc2)CC1)S(=O)(=O)c1cccc2cnccc12 [KN-62] | effective at blocking Ivermectin-induced necrotic and apoptotic cell death | suppressed permeabilization to YOPRO-1 in a dose-dependent fashion | More than 1 μM | long-term protection against Ivermectin and ATP that extended up to 24 h
3 | COc1ccc(S(=O)(=O)N(CCO)c2ccccc2CN(C)C/C=C/c2ccc(Cl)cc2)cc1 [KN-93] | effectively blocked Ivermectin-induced cell death | most potent at blocking ATP- and Ivermectin-induced membrane permeabilization to YOPRO-1 |  | 
